How the values were obtained:
[1] = system: T17 cells (TrkA stably transfected SN56 cells); assay: Cell-based apoptotic assay: protection of TrkA-expressing T17 cells from staurosporine-initiated apoptosis, MR(DEVD)2 caspase-3 dye; parameters: species or system murine; details: for apoptosis inhibitory activity in T17 cells: 0.5 μM pre-incubation, then 1 μM STS for 9 h, compared with NGF
From the text: In order to identify small molecules that mimic NGF and activate TrkA, we developed a cell-based apoptotic assay using a cell permeable fluorescent dye MR([…])2, which turns red upon caspase-3 cleavage in apoptotic cells. We utilized a murine cell line T17, which was derived from basal forebrain SN56 cells. T17 cells are TrkA stably transfected SN56 cells. The candidates selectively protecting T17 but not SN56 cells from the first round screen can then be subjected to neurite outgrowth assay for the secondary screen. The positive compounds can be analyzed for TrkA tyrosine phosphorylation, Akt and MAP kinases signaling cascade activation.
T17 cells can be cultured in 96-well plates and preincubated with 10 μM compounds for 30 min, followed by 1 μM staurosporine (STS) treatment for 9 h. MR(DEVD)2 can be introduced to the cells 1 h before examination under fluorescent microscope. The apoptotic cells are red, while live cells have no signal. […] Using the caspase-3-activated fluorescent dye as a visual assay, one can screen the gambogic amine compounds.
To compare the apoptosis inhibitory activity of various compounds, one can pre-incubate gambogic amines derivatives (0.5 μM) with T17 and SN56 cells, followed by 1 μM STS for 9 h. Quantitative analysis of the apoptosis inhibitory activities can determine whether the compounds protect SN56 cells from apoptosis.
T17 cells can be seeded in a 96-well plate at 10,000 cells/well in 100 μl complete medium. Cells can be incubated overnight, followed by 30 min pretreatment with 10 μM compounds in DMSO (10 mM stock concentration from The Spectrum Collection library). The cells can then be treated with 1 μM Staurosporine for 9 h. One h before the termination of the experiment, 10 μM MR(DEVD)2, a cell permeable caspase-3-activated fluorescent dye can be introduced. Cells can be fixed with 4% paraformaldehyde for 15 min. Cells can then be washed with PBS and incubated with 1 μg/ml of Hoechst 33342 for 10 min. Cover slides can then be washed with PBS, mounted, and examined using a fluorescence microscope.

hippocampus = assay: Kainic acid-elicited neuronal cell death in mouse brain (TUNEL, hippocampus); type: in vivo, C57BL/6 mice; details: KA alone, quantitative analysis of apoptosis
From the text: Kainic acid (KA) is a potent agonist for the AMPA receptor. Peripheral injections of KA result in recurrent seizures and the subsequent degeneration of select populations of neurons in the hippocampus (Nadler et al., 1980; Schauwecker and Steward, 1997; Sperk et al., 1983). It has been shown that the activation of caspase-3 is a necessary component of KA-induced cell death (Faherty et al., 1999). To explore whether test compounds can block the neurotoxicity initiated by KA, the compounds can be subcutaneously injected (for example, at a concentration of 2 mg/kg) into C57BL/6 mice, followed by 25 mg/kg KA. In 5 days, the mice can be perfused and the brains cut to a thickness of 5 μm and mounted on slides.
Kainic acid (KA) is a potent agonist for the AMPA receptor. Peripheral injections of KA result in recurrent seizures and the subsequent degeneration of select populations of neurons in the hippocampus (Nadler et al., 1980; Schauwecker and Steward, 1997; Sperk et al., 1983). It has been shown that the activation of caspase-3 is a necessary component of KA-induced cell death (Faherty et al., 1999). To explore whether gambogic amines can block the neurotoxicity initiated by KA, one can subcutaneously inject 2 mg/kg of a gambogic amine into C57BL/6 mice, followed by 25 mg/kg KA. In 5 days, the mice can be perfused and the brains were cut to a thickness of 5 μm and mounted on slides. TUNEL staining can reveal whether KA provokes enormous apoptosis in the hippocampus, and whether this effect is substantially diminished by the gambogic amine.
Male C57BL/6 mice aged of 60 days can be injected subcutaneously (s.c.) with a single dose of either 30% ethanol in saline or KA (25 mg/kg) (Sigma, Mo.) or the gambogic amine (2 mg/kg) followed by KA. Animals can be continually monitored for 2 h for the onset of seizure activity. At 5 days following treatment, animals can be anesthetized and perfused with 4% paraformaldehyde in 0.1 M phosphate buffered saline. Brains can be removed, post-fixed overnight and processed for paraffin embedding. […]

[2] = Kasibhatla et al., 2005; cited from earlier work
PC12 cells = assay: Neurite outgrowth in PC12 cells; type: cell-based; details: after 5 days of treatment
Protocol: One of most prominent neurotrophic effects of NGF is to trigger neurite outgrowth in neuronal cells and incur differentiation. […] The cell medium containing the compounds can be replenished every other day. […] The gambogic amine compounds can similarly be evaluated for their ability to induce evident neurite outgrowth in PC12 cells. Dose-dependent assays can reveal whether 10-50 nM of gambogic amines are sufficient to provoke substantial neurite sprouting in PC12 cells.

Erk1/2 and Akt = Erk1/2 and Akt phosphorylation in T17 cells, immunoblot; type: cell-based, murine; details: 30 min
Protocol: (§1) NGF triggers PI 3-kinase/Akt and Ras/MAP Kinase signaling cascades activation through the TrkA receptor. […] The cell lysates can be analyzed by immunoblotting with anti-phospho-Erk1/2 and phospho-Akt-473 antibodies, respectively. […] One can also extend the assays into primary hippocampal neurons. […] Time course assay with hippocampal neurons can show whether gambogic amines (0.5 μM) elicit Akt phosphorylation after 5 min treatment, and whether Akt activation increases after 10 min and is sustained for 60 min. One can also determine whether the gambogic amines provoke Akt activation in a dose-dependent manner.

TrkA = TrkA tyrosine phosphorylation in primary hippocampal neurons, anti-phospho-TrkA Y490 immunoblot; type: cell-based; details: 30 min
From the text: NGF binds to receptor TrkA and elicits its dimerization and autophosphorylation on tyrosine residues. Numerous tyrosine residues on TrkA are phosphorylated upon NGF stimulation. For example, Y490 phosphorylation is required for Shc association and activation of MAP kinase signaling cascade. Y751 phosphorylation is essential for PI 3-kinase docking and activation. To evaluate whether gambogic amine compounds can also trigger TrkA tyrosine phosphorylation, one can treat primary hippocampal neurons with various drugs at 0.5 μM for 30 min. The cell lysates can be analyzed by immunoblotting with anti-phospho-TrkA Y490 antibody. […] To explore whether gambogic amines can trigger TrkA dimerization, one can cotransfect GFP-TrkA and HA-TrkA into HEK293 cells, and treat the cells with 0.5 μM gambogic amine for 30 min. Communoprecipitation assays can be used to determine whether gambogic amines provoke TrkA dimerization even more strongly than NGF. One can also evaluate whether the gambogic amines also elicit tyrosine phosphorylation in TrkA but not in TrkB or C receptors.

Akt = Akt activation in primary hippocampal neurons; type: cell-based
Protocol: as §1

COC(=O)/C(C)=C\CC12OC(C)(C)C3CC(C=C4C(=O)c5c(OC)c6c(c(CC=C(C)C)c5OC431)OC(C)(CCC=C(C)C)C=C6)C2=O (centres unmarked) [dimethyl gambogate]
apoptosis inhibitory activity in T17 cells [1]: strongly suppress apoptosis in T17 cells with protective activities even stronger than NGF

C=C(C)[C@H]1CN[C@H](C(=O)O)[C@H]1CC(=O)O [KA, Kainic acid]
cell death in the CA1 region of the hippocampus (hippocampus; CA1 region): 47% | cell death in the CA3 region of the hippocampus (hippocampus; CA3 region): 57%

CC(C)=CCC[C@]1(C)C=Cc2c(O)c3c(c(CC=C(C)C)c2O1)O[C@]12C(=C[C@@H]4C[C@H]1C(C)(C)O[C@@]2(C/C=C(/C)C(=O)O)C4=O)C3=O [gambogic acid, Gambogic Acid]
Kd of association with Transferrin [2]: 2200 nM | apoptosis inhibitory activity in T17 cells [1]: strongly suppress apoptosis in T17 cells with protective activities even stronger than NGF

CC(C)=CCCC1(C)C=Cc2c(O)c3c(c(CC=C(C)C)c2O1)OC12C(=CC4CC1C(C)(C)OC2(C/C=C(/C)C(=O)O)C4O)C3=O (centres unmarked) [dihydrogambogic acid]
apoptosis inhibitory activity in T17 cells [1]: strongly suppress apoptosis in T17 cells with protective activities even stronger than NGF

NGF: nerve growth factor, binds mainly TrkA; positive control, from Roche
neurite sprouting in PC12 cells (PC12 cells): pronounced neurite sprouting | Erk1/2 and Akt phosphorylation (Erk1/2 and Akt): stimulates demonstrable Erk1/2 and Akt phosphorylation | TrkA phosphorylation (Y490) (TrkA): induces potent TrkA phosphorylation | Akt activation (Akt): evidently activates Akt | red (apoptotic) cell numbers compared to DMSO control ([1]; positive control, 1 μM staurosporine for 9 h, MR(DEVD)2 dye): substantially decreases the red cell numbers
